Reference: PubChem BioAssay (NCI)
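Cells were grown in 96-well plates and exposed to each compound for 48 hours at five concentrations; endpoints were interpolated linearly between bracketing concentrations, or set to the highest concentration if not reached. At the TGI there is no net growth.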

Experiments:
Experiment in all cases: NCI tumour cell line growth inhibition, 48 h
[1] = system: LXFL 529 NSCLC
[2] = system: HCC-2998 colon
[3] = system: MOLT-4 leukemia
[4] = system: OVCAR-5 ovarian
[5] = system: SF-539 CNS
[6] = system: COLO 205 colon
[7] = system: UACC-62 melanoma
[8] = system: HL-60(TB) leukemia
[9] = system: UACC-257 melanoma
[10] = system: DLD-1 colon
[11] = system: U251 CNS
[12] = system: KM12 colon
[13] = system: OVCAR-8 ovarian
[14] = system: TK-10 renal
[15] = system: XF 498 CNS
[16] = system: SN12C renal
[17] = system: OVCAR-3 ovarian
[18] = system: SNB-78 CNS
[19] = system: HCT-15 colon
[20] = system: NCI-H226 lung
[21] = system: ACHN renal
[22] = system: A549 NSCLC
[23] = system: LOX IMVI melanoma
[24] = system: SR leukemia
[25] = system: DMS 114 small cell lung
[26] = system: SK-MEL-28 melanoma
[27] = system: A498 renal
[28] = system: SF-268 CNS
[29] = system: OVCAR-4 ovarian
[30] = system: SNB-75 CNS
[31] = system: HT29 colon
[32] = system: NCI-H522 lung
[33] = system: SNB-19 CNS
[34] = system: RPMI-8226 leukemia
[35] = system: M19-MEL melanoma
[36] = system: CAKI-1 renal
[37] = system: SW-620 colon
[38] = system: NCI-H460 lung
[39] = system: HOP-18 NSCLC
[40] = system: DMS 273 small cell lung
[41] = system: SK-MEL-5 melanoma
[42] = system: K-562 leukemia
[43] = system: RXF 393 renal
[44] = system: 786-0 renal
[45] = system: CCRF-CEM leukemia
[46] = system: HOP-92 NSCLC
[47] = system: NCI-H23 lung
[48] = system: SF-295 CNS
[49] = system: HCT-116 colon
[50] = system: IGROV1 ovarian
[51] = system: RXF-631 renal
[52] = system: SK-MEL-2 melanoma
[53] = system: M14 melanoma
[54] = system: UO-31 renal
[55] = system: HOP-62 NSCLC
[56] = system: KM20L2 colon
[57] = system: MALME-3M melanoma
[58] = system: SK-OV-3 ovarian
[59] = system: EKVX NSCLC
[60] = system: T-47D breast
[61] = system: BT-549 breast
[62] = system: MDA-MB-231 breast
[63] = system: MDA-N
[64] = system: NCI/ADR-RES ovarian
[65] = system: HS 578T breast
[66] = system: MCF7 breast
[67] = system: DU-145 prostate

`CN(C)CC1(Cc2ccccc2)CC/C(=C\c2ccccc2)C1=O` (configuration not stated) was tested, and the TGI [1] was over 100 µM, the TGI [2] was 40.7 µM and the TGI [3] was 67.5 µM. The TGI [4] was over 100 µM, the TGI [5] was 60.3 µM and the TGI [6] was 89.6 µM. For the same compound, the TGI [7] was over 100 µM, the TGI [8] was 48.7 µM and the TGI [9] was over 100 µM. The TGI [10] was over 100 µM, the TGI [11] was over 100 µM and the TGI [12] was over 100 µM. For the same compound, the TGI [13] was over 100 µM, the TGI [14] was over 100 µM and the TGI [15] was over 100 µM. It also gave a TGI [16] of over 100 µM, a TGI [17] of over 100 µM and a TGI [18] of over 100 µM. It also gave a TGI [19] of 42.1 µM, a TGI [20] of over 100 µM and a TGI [21] of over 100 µM. For the same compound, the TGI [22] was over 100 µM, the TGI [23] was 74.9 µM and the TGI [24] was 60.4 µM. It also gave a TGI [25] of 80.1 µM, a TGI [26] of over 100 µM and a TGI [27] of over 100 µM. For the same compound, the TGI [28] was over 100 µM, the TGI [29] was over 100 µM and the TGI [30] was over 100 µM. The TGI [31] was 52.6 µM, the TGI [32] was 30.1 µM and the TGI [33] was 63.3 µM. For the same compound, the TGI [34] was 55.7 µM, the TGI [35] was 64.6 µM and the TGI [36] was over 100 µM. For the same compound, the TGI [37] was 60.3 µM, the TGI [38] was 68.3 µM and the TGI [39] was over 100 µM. The TGI [40] was over 100 µM, the TGI [41] was 64.3 µM and the TGI [42] was over 100 µM. For the same compound, the TGI [43] was 92.8 µM, the TGI [44] was over 100 µM and the TGI [45] was 59.9 µM. The TGI [46] was over 100 µM, the TGI [47] was over 100 µM and the TGI [48] was over 100 µM. It also gave a TGI [49] of over 100 µM, a TGI [50] of over 100 µM and a TGI [51] of 83.7 µM. The TGI [52] was over 100 µM, the TGI [53] was over 100 µM and the TGI [54] was over 100 µM. It also gave a TGI [55] of over 100 µM, a TGI [56] of 35 µM and a TGI [57] of over 100 µM.
For `NNC(=O)/C(NC(=O)c1ccccc1)=C(\N)c1cccc([N+](=O)[O-])c1`, the TGI [1] was over 100 µM, the TGI [2] was over 100 µM and the TGI [3] was over 100 µM. For the same compound, the TGI [4] was over 100 µM, the TGI [5] was over 100 µM and the TGI [6] was over 100 µM. The TGI [7] was over 100 µM, the TGI [8] was over 100 µM and the TGI [9] was over 100 µM. It also gave a TGI [10] of over 100 µM, a TGI [11] of over 100 µM and a TGI [12] of over 100 µM. For the same compound, the TGI [13] was over 100 µM, the TGI [14] was over 100 µM and the TGI [15] was over 100 µM. It also gave a TGI [16] of over 100 µM, a TGI [17] of over 100 µM and a TGI [18] of over 100 µM. It also gave a TGI [19] of over 100 µM, a TGI [20] of over 100 µM and a TGI [21] of over 100 µM. For the same compound, the TGI [58] was over 100 µM, the TGI [22] was over 100 µM and the TGI [23] was over 100 µM. It also gave a TGI [24] of over 100 µM, a TGI [25] of over 100 µM and a TGI [26] of over 100 µM. It also gave a TGI [27] of over 100 µM, a TGI [28] of over 100 µM and a TGI [29] of over 100 µM. It also gave a TGI [30] of over 100 µM, a TGI [31] of over 100 µM and a TGI [32] of over 100 µM. It also gave a TGI [33] of over 100 µM, a TGI [34] of over 100 µM and a TGI [35] of over 100 µM. It also gave a TGI [36] of over 100 µM, a TGI [37] of over 100 µM and a TGI [38] of over 100 µM. It also gave a TGI [39] of over 100 µM, a TGI [40] of over 100 µM and a TGI [41] of over 100 µM. It also gave a TGI [42] of over 100 µM, a TGI [43] of over 100 µM and a TGI [44] of over 100 µM. The TGI [45] was over 100 µM, the TGI [46] was over 100 µM and the TGI [47] was over 100 µM. The TGI [48] was over 100 µM, the TGI [49] was over 100 µM and the TGI [59] was over 100 µM. The TGI [50] was over 100 µM, the TGI [51] was over 100 µM and the TGI [52] was over 100 µM. The TGI [53] was over 100 µM, the TGI [54] was over 100 µM and the TGI [55] was over 100 µM. It also gave a TGI [57] of over 100 µM.
Compound `COc1ccccc1/C=C1\CCC(Cc2ccccc2)(CN(C)C)C1=O` (configuration not stated) has a TGI [1] of over 52.3 µM, a TGI [2] of 24.3 µM and a TGI [3] of 38.9 µM. For the same compound, the TGI [4] was over 81.9 µM, the TGI [5] was 5.89 µM and the TGI [6] was 7.82 µM. The TGI [7] was over 26.1 µM, the TGI [8] was 15.1 µM and the TGI [9] was over 100 µM. For the same compound, the TGI [60] was over 100 µM, the TGI [10] was over 80.4 µM and the TGI [11] was 45.5 µM. The TGI [12] was 15.9 µM, the TGI [13] was 22.9 µM and the TGI [14] was over 77.7 µM. For the same compound, the TGI [15] was over 72.6 µM, the TGI [61] was 40.5 µM and the TGI [16] was 50.3 µM. For the same compound, the TGI [17] was 15.3 µM, the TGI [18] was over 23.2 µM and the TGI [19] was 14.4 µM. For the same compound, the TGI [20] was 80.4 µM, the TGI [62] was 46.7 µM and the TGI [21] was over 100 µM. For the same compound, the TGI [58] was over 42.2 µM, the TGI [22] was over 100 µM and the TGI [63] was 3.12 µM. It also gave a TGI [23] of 29.4 µM, a TGI [24] of 3.53 µM and a TGI [25] of over 36.2 µM. For the same compound, the TGI [26] was over 100 µM, the TGI [27] was 27.6 µM and the TGI [28] was over 100 µM. The TGI [29] was over 100 µM, the TGI [64] was over 100 µM and the TGI [30] was over 88.9 µM. For the same compound, the TGI [31] was 5.55 µM, the TGI [32] was 2.1 µM and the TGI [33] was over 100 µM. The TGI [34] was 39.1 µM, the TGI [35] was over 58.9 µM and the TGI [36] was 51.8 µM. For the same compound, the TGI [37] was 35.2 µM, the TGI [38] was 12.8 µM and the TGI [39] was over 100 µM. It also gave a TGI [40] of 2.48 µM, a TGI [41] of 11.9 µM and a TGI [42] of over 34.5 µM. For the same compound, the TGI [43] was 51 µM, the TGI [44] was 23.4 µM and the TGI [45] was 24.4 µM. It also gave a TGI [65] of over 100 µM, a TGI [46] of 66.2 µM and a TGI [47] of over 100 µM. For the same compound, the TGI [48] was over 63.1 µM, the TGI [49] was 39.4 µM and the TGI [59] was 34.7 µM. The TGI [50] was over 41.2 µM, the TGI [51] was 9.92 µM and the TGI [52] was 34.8 µM. For the same compound, the TGI [53] was 34.9 µM, the TGI [66] was 25.6 µM and the TGI [54] was over 100 µM. The TGI [55] was over 69 µM, the TGI [56] was 2.34 µM and the TGI [67] was over 100 µM. The TGI [57] was over 100 µM.
